Measurements from US20220162215A1, “COMPOSITIONS AND METHODS OF USING THE SAME FOR TREATMENT OF NEURODEGENERATIVE AND MITOCHONDRIAL DISEASE” (MITOKININ, INC., priority 2019, published 2022).
≈ marks a conversion by molar mass, not a printed value. Read-outs that look alike come from different tables or passages of the source.

Columns and labels:
HeLa MKYP cells [1] = experiment: Human mitophagy assay (HeLa MKYP, mtKeima FACS, FCCP/oligomycin); type: cell-based
Method: (§1) Briefly, HeLa MKYP cells were plated at 10,000 cells/well in 96 well plates along with compounds at various concentrations. Following 16 hrs of incubation, cells were treated with 1 uM FCCP/oligomycin for 6 hours, then analyzed via FACS for the presence of mitochondria in lysosomes (as determined by an emissions spectrum shift from the pH-sensitive mtKeima tag). Examples are shown in FIG. 1 through FIG. 13 below.

HeLa MKYP cells [2] = experiment: Toxicity / cell death measured by DAPI staining (take-up); type: cell-based; conditions: for Toxicity (% positive for DAPI takeup @ 50 μM): Table 3; for Max cell death at 25 uM compound, 1 uM FO / Cell death at 25 μM (no FO): Table 3 Supplement B
Method: H2O2 treatment was performed as a control for cell death as measured by DAPI staining.
as §1, with “tag).” for “tag). Examples are shown in FIG. 1 through FIG. 13 below.”

mitotoxicity = experiment: Mitotox safety margin (therapeutic window); type: cell-based; conditions: for Mitotox safety margin (Therapeutic window): class of the Ratio; for Ratio**: highest concentration with no observable mitotoxicity (μM) divided by the EC50 (μM) of the compound
Solubility in 1× PBS = type: physicochemical
[3] = tested on: Hela MKYP (Mito-Keima/YFP-Parkin) cells; conditions: human, 22 h
Method: (§2) Briefly, the Hela MKYP (Mito-Keima/YFP-Parkin) cells were seeded at 10K cells/well. EP/MTK compounds were added at seeding (cells were still in suspension). The cells were incubated with the EP/MTK compounds for 16 hours, then 1 μM FCCP/oligomycin was added for 6 hours. Prior to harvesting, cells were scored by eye under 20× magnification for the presence or absence of crystalline or aggregated compound, or round cells.

[4] = Visual inspection of crystallization; type: physicochemical; design: key: 1: yes crystals; 0: no crystals; conditions: Tables 5A-5D
Method: as §2

[5] = Homo sapiens, HeLa, Table 3 Supplement B, read-out: Mitophagy EC50 (HeLa mKeima assay)
[6] = Table 3, read-out: Potency at 1 μM F/O toxin* (EC50 of mitophagy activation)
[7] = Homo sapiens, HeLa, Table 3, read-out: Potency at 1 μM F/O toxin* (EC50 of mitophagy activation)

SMILES: CN1CC[C@H](Nc2ncnc3[nH]c(C(F)(F)F)cc23)c2ccccc21 [Compound 81]
- EC50 (HeLa MKYP cells [1]; [5]): 1.33 µM
- EC50 (HeLa MKYP cells [1]; [6]): 1.7 µM
- Toxicity (% positive for DAPI takeup @ 50 μM) (HeLa MKYP cells [2]; 50 μM): 59.0%
- Max cell death at 25 uM compound, 1 uM FO (HeLa MKYP cells [2]): 16%
- Cell death at 25 μM (no FO) (HeLa MKYP cells [2]): 2.51%
- Mitotox safety margin (Therapeutic window) (mitotoxicity): ++++ (ratio 30<)
- Ratio** (mitotoxicity): 30
- solubility (Solubility in 1× PBS): 74.8 µM (≈ 26 µg/mL)

SMILES: N#Cc1cccc2c1CCCC2Nc1ncnc2[nH]c(C(F)(F)F)cc12 (stereo not drawn) [Compound 92]
- EC50 (HeLa MKYP cells [1]; [7]): 3 µM
- EC50 (HeLa MKYP cells [1]; [5]): 2.98 µM
- Toxicity (% positive for DAPI takeup @ 50 μM) (HeLa MKYP cells [2]; 50 μM): 71.2%
- Max cell death at 25 uM compound, 1 uM FO (HeLa MKYP cells [2]): 71.2%
- Cell death at 25 μM (no FO) (HeLa MKYP cells [2]): 57.1%
- Mitotox safety margin (Therapeutic window) (mitotoxicity): + (ratio <10)
- Ratio** (mitotoxicity): 8.39
- solubility (Solubility in 1× PBS): 1 µM (≈ 0.357 µg/mL)

SMILES: c1ccc(CNc2ncnc3nc[nH]c23)cc1 [Compound 6BAP, 6-benzylaminopurine, reference compound]
- Inspection of round cells ([3]; 1.6 μM): 0
- Inspection of round cells ([3]; 3.1 μM): 0
- Inspection of round cells ([3]; 6.3 μM): 0
- Inspection of round cells ([3]; 12.5 μM): 0
- Inspection of round cells ([3]; 25 μM): 0
- Inspection of round cells ([3]; 50 μM): 0
- Visual inspection of crystallization ([4]; 1.6 μM): 0
- Visual inspection of crystallization ([4]; 3.1 μM): 0
- Visual inspection of crystallization ([4]; 6.3 μM): 0
- Visual inspection of crystallization ([4]; 12.5 μM): 0
- Visual inspection of crystallization ([4]; 25.0 μM): 0
- Visual inspection of crystallization ([4]; 50.0 μM): 0

SMILES: CC[C@@H]1CCc2ccccc2[C@@H]1Nc1ncnc2[nH]c(C(F)(F)F)cc12 [Compound 100]
- EC50 (HeLa MKYP cells [1]; [7]): 1.8 µM
- EC50 (HeLa MKYP cells [1]; [5]): 1.81 µM
- Toxicity (% positive for DAPI takeup @ 50 μM) (HeLa MKYP cells [2]; 50 μM): 8.7%
- Max cell death at 25 uM compound, 1 uM FO (HeLa MKYP cells [2]): 8.735%
- Cell death at 25 μM (no FO) (HeLa MKYP cells [2]): 5.04%
- Mitotox safety margin (Therapeutic window) (mitotoxicity): ++ (ratio 10< × <20)
- Ratio** (mitotoxicity): 13.8
- solubility (Solubility in 1× PBS): 9.39 µM (≈ 3.38 µg/mL)

SMILES: C[C@H]1CCc2ccccc2[C@@H]1Nc1ncnc2[nH]c(C(F)(F)F)cc12 [Compound 102]
- EC50 (HeLa MKYP cells [1]; [6]): 0.6 µM
- EC50 (HeLa MKYP cells [1]; Table 3 Supplement B, listed as EP-0037882, read-out: Mitophagy EC50 (HeLa mKeima assay)): 0.59 µM
- Toxicity (% positive for DAPI takeup @ 50 μM) (HeLa MKYP cells [2]; 50 μM): 13.3%
- Max cell death at 25 uM compound, 1 uM FO (HeLa MKYP cells [2]; listed as EP-0037882): 13.32%
- Cell death at 25 μM (no FO) (HeLa MKYP cells [2]; listed as EP-0037882): 3.79%
- Mitotox safety margin (Therapeutic window) (mitotoxicity; listed as EP-0037882): ++++ (ratio 30<)
- Ratio** (mitotoxicity; listed as EP-0037882): 42.16
- solubility (Solubility in 1× PBS): 1 µM (≈ 0.346 µg/mL)

SMILES: O[C@H]1Cc2ccccc2[C@@H]1Nc1ncnc2[nH]c(C(F)(F)F)cc12 [Compound 90]
- EC50 (HeLa MKYP cells [1]; [5]): 18.5 µM
- Toxicity (% positive for DAPI takeup @ 50 μM) (HeLa MKYP cells [2]; 50 μM): 14.4%
- Max cell death at 25 uM compound, 1 uM FO (HeLa MKYP cells [2]): 14.4%
- Cell death at 25 μM (no FO) (HeLa MKYP cells [2]): 2.51%
- Mitotox safety margin (Therapeutic window) (mitotoxicity): + (ratio <10)
- Ratio** (mitotoxicity): 1.35
- solubility (Solubility in 1× PBS): 20.1 µM (≈ 6.72 µg/mL)

SMILES: C[C@H]1CCc2ccccc2[C@@H]1Nc1ncnc2[nH]c(C(F)(F)F)cc12 [Compound 82]
- EC50 (HeLa MKYP cells [1]; [7]): 1 µM
- EC50 (HeLa MKYP cells [1]; [5]): 1.02 µM
- Toxicity (% positive for DAPI takeup @ 50 μM) (HeLa MKYP cells [2]; 50 μM): 28.3%
- Max cell death at 25 uM compound, 1 uM FO (HeLa MKYP cells [2]; listed as EP-0037059): 26%
- Cell death at 25 μM (no FO) (HeLa MKYP cells [2]; listed as EP-0037059): 4.9%
- Mitotox safety margin (Therapeutic window) (mitotoxicity; listed as EP-0037059): + (ratio <10)
- Ratio** (mitotoxicity; listed as EP-0037059): 8.69
- solubility (Solubility in 1× PBS): 1 µM (≈ 0.346 µg/mL)

SMILES: FC(F)(F)c1cc2c(N[C@@H]3CCOc4ccccc43)ncnc2[nH]1 [Compound 37]
- EC50 (HeLa MKYP cells [1]; [7]): 6.3 µM
- EC50 (HeLa MKYP cells [1]; Homo sapiens, HeLa, Table 3 Supplement A, as measured in Table 3, read-out: Potency (EC50 Max Mitophagy) (μM)*): 6.28 µM
- EC50 (HeLa MKYP cells [1]; [5]): 6.25 µM
- Toxicity (% positive for DAPI takeup @ 50 μM) (HeLa MKYP cells [2]; 50 μM): 21.1%
- Toxicity (% positive for DAPI take-up at 50 μM)* (HeLa MKYP cells [2]; Table 3 Supplement A, 50 μM): 21.05%
- Max cell death at 25 uM compound, 1 uM FO (HeLa MKYP cells [2]): 21%
- Cell death at 25 μM (no FO) (HeLa MKYP cells [2]): 3.04%
- Mitotox safety margin (Therapeutic window) (mitotoxicity): + (ratio <10)
- Ratio** (mitotoxicity): 8.85
- solubility (Solubility in 1× PBS): 150 µM (≈ 50.1 µg/mL)

SMILES: c1coc(CNc2ncnc3[nH]cnc23)c1 [kinetin, reference compound]
- Toxicity (% positive for DAPI take-up @ 50 μM) (HeLa MKYP cells [2]; human, 50 μM): 4.9%
- Inspection of round cells ([3]; 1.6 μM): 0
- Inspection of round cells ([3]; 3.1 μM): 0
- Inspection of round cells ([3]; 6.3 μM): 0
- Inspection of round cells ([3]; 12.5 μM): 0
- Inspection of round cells ([3]; 25 μM): 0
- Inspection of round cells ([3]; 50 μM): 0
- Visual inspection of crystallization ([4]; 1.6 μM): 0
- Visual inspection of crystallization ([4]; 3.1 μM): 0
- Visual inspection of crystallization ([4]; 6.3 μM): 0
- Visual inspection of crystallization ([4]; 12.5 μM): 0
- Visual inspection of crystallization ([4]; 25.0 μM): 0
- Visual inspection of crystallization ([4]; 50.0 μM): 0

SMILES: OC[C@@H]1CCc2ccccc2[C@H]1Nc1ncnc2[nH]c(C(F)(F)F)cc12 [Compound 94]
- EC50 (HeLa MKYP cells [1]; [7]): 1.1 µM
- EC50 (HeLa MKYP cells [1]; [5]): 1.15 µM
- Toxicity (% positive for DAPI takeup @ 50 μM) (HeLa MKYP cells [2]; 50 μM): 59.5%
- Max cell death at 25 uM compound, 1 uM FO (HeLa MKYP cells [2]): 59.535%
- Cell death at 25 μM (no FO) (HeLa MKYP cells [2]): 27%
- Mitotox safety margin (Therapeutic window) (mitotoxicity): + (ratio <10)
- Ratio** (mitotoxicity): 7.25
- solubility (Solubility in 1× PBS): 12.9 µM (≈ 4.67 µg/mL)

SMILES: O[C@@H]1Cc2ccccc2[C@H]1Nc1ncnc2[nH]c(C(F)(F)F)cc12 [Compound 88]
- EC50 (HeLa MKYP cells [1]; [5]): 15.1 µM
- Toxicity (% positive for DAPI takeup @ 50 μM) (HeLa MKYP cells [2]; 50 μM): 7.6%
- Max cell death at 25 uM compound, 1 uM FO (HeLa MKYP cells [2]): 7.59%
- Cell death at 25 μM (no FO) (HeLa MKYP cells [2]): 2.35%
- Mitotox safety margin (Therapeutic window) (mitotoxicity): + (ratio <10)
- Ratio** (mitotoxicity): 1.66
- solubility (Solubility in 1× PBS): 19.2 µM (≈ 6.42 µg/mL)

SMILES: c1ccc2c(c1)CCC[C@H]2Nc1ncnc2[nH]c(C3CC3)cc12 [Compound 107]
- EC50 (HeLa MKYP cells [1]; [7]): 0.48 µM
- EC50 (HeLa MKYP cells [1]; [5]): 0.47 µM
- Toxicity (% positive for DAPI takeup @ 50 μM) (HeLa MKYP cells [2]; 50 μM): 16.6%
- Max cell death at 25 uM compound, 1 uM FO (HeLa MKYP cells [2]): 14.9%
- Cell death at 25 μM (no FO) (HeLa MKYP cells [2]): 9.32%
- Mitotox safety margin (Therapeutic window) (mitotoxicity): ++++ (ratio 30<)
- Ratio** (mitotoxicity): 53.2
- solubility (Solubility in 1× PBS): 1 µM (≈ 0.304 µg/mL)
